# Experimental data from patent US7067500B2, “Betaines as adjuvants to susceptibility testing and antimicrobial therapy” (priority 1997, dated 2006).
# “Also recorded” adds a separate entry of the source. Where a name gives a salt, the structure may show the parent alone.
# System: M. tuberculosis isolates (Table 8)
# Assay: MTB isolates vs. antibiotic screen in the presence and absence of CB-18
# Conditions: CB-18 17 μg/ml
smiles,measurement,setting,value
"CCCCCCCCCCCCCCCCCC[N+](C)(C)CCCC(=O)[O-] [CB-18, N-(3-carboxypropyl)-N,N-dimethyl-1-octadecanaminium, inner salt]",CB-18 induced sensitivity to antibiotics tested,061-TBR (INH resistant),"exacerbated in the presence of CB-18; also recorded: Minor, if any, CB-18 induced sensitivity to"
same,CB-18 induced sensitivity to antibiotics tested,"896-BAL (multi drug resistant: INH, RIF & PZA)","Minimal, if any, CB-18 induced sensitivity to"
